Assays:
[1] = Photolytic (UV) degradation in Mili-Q water, LC-MS; format: physicochemical; details: 365 nm UV light, 7 h, 50 μg/mL in Mili-Q water, clear plastic vials, n = 3
Protocol: (§1) The separation was carried out using Kinetex XB-C18 column (150 mm × 2.1 mm × 1.7 μm; Phenomenex, Torrance, CA, USA). The mobile phase consisted of A: 0.1% formic acid in deionized water and B: 0.1% formic acid in acetonitrile (MeCN). The two-step gradient was used from 5% B to 50% B in 13 min and from 50% B to 65% B up to 20 min. The column temperature was maintained at 25 °C with a flow rate equal to 0.3 mL/min. The eluate was introduced directly to the mass spectrometer. The ion trap setting was as follows: capillary voltage 4500 V, endplate offset 500 V, nebulizer pressure 40 psi, drying gas temperature 145 °C and gas flow rate 9 L/min. The instrument used a smart parameter setting (SPS) fixed at 1000 amu. The scan range was from m/z = 70 to m/z = 2200. Compounds were analyzed in […] ion mode.
(§2) Before LC analysis, the ionization of each quantified compound in the positive ion mode was optimized by the direct injection of standard (50 µg/mL in 0.1% HCOOH in H2O; 0.3 mL/min) into the ESI source of the mass spectrometer. The intensity of the most abundant ion for each compound was monitored in order to choose optimal conditions. The quantification of investigated compounds was performed using the dominating ion (for both PK20 and [Ile^9] PK20 the ion at m/z =1357.40 ± 0.3, retention time ca. 11.2 min).
(§3) The calibration curves were plotted as the amount of injected compound (ng) vs. detector response (peak area) using extracted ion chromatograms (EIC) for the characteristic ion for each compound. The linear range for each quantified compound was between 5 and 200 ng per injection. Five amount levels were used for the plotting of curves. Samples at each level were analyzed in triplicate.
(§4) The stability of PK20 and [Ile^9]PK20 was tested under acidic, basic, oxidative, heat, freeze and ultraviolet light conditions. All experiments were conducted in triplicate (n = 3). The comparison of peak areas in degradative and non-degradative conditions for both compounds can be observed in Figure 3 and Figure 4.
PK20 and [Ile^9]PK20 solution (50 μg/mL) was prepared in Mili-Q water, and aliquots were kept in clear plastic vials exposed to UV light (366 nm, Camag, UV Lamp 4, Camag, Switzerland) for 7 h. After the incubation, the drug solution was diluted with an equal volume of 0.2% formic acid in acetonitrile and analyzed with LC-MS.

mu opioid receptor = details: intrinsic activity of the receptor; read-out: EC50 (potency) at mu opioid receptor; cited from earlier work
Text: (§5) Since hybrid compounds have gained attention due to their potent multifunctional behavior with a more favorable profile in terms of possible side effects, much work devoted to such compounds can be found. PK20 and [Ile^9]PK20, which are hybrid structures encompassing both opioid and neurotensin pharmacophores, although modified, were designed and synthesized to reduce pain.

[2] = 0.005 nmol/rat at 120 min and 0.02 nmol/rat at 30, 60 and 120 min; cited from earlier work
Text: as §5

[3] = Base hydrolysis (1 M NaOH) forced degradation, LC-MS; format: physicochemical; details: for Recovery / Concentration Found (Mean ± SD): basic degradation, 50 μg/mL in 1 M NaOH, n = 3; for Concentration Found (Mean ± SD): neutralised with 1 M HCl
Protocol: as §1, §2, §3, §4
(§6) Drug solution (50 μg/mL) was prepared in HCl (1 M) or NaOH (1 M). Aliquots were kept at a temperature of 80 °C (LBK type water bath, SWL Bytom, Poland) for 12 h and 37°C (medical water bath, LW102, Auritronic, Krakow, Poland) for 24 h. At a specific time-point, acidic and basic solutions of both PK20 and [Ile^9]PK20 were neutralized with an equal volume of 1 M NaOH or 1 M HCl, respectively, and diluted with an equal volume of 0.2% formic acid in acetonitrile and analyzed using LC-MS.

[4] = Acid hydrolysis (1 M HCl) forced degradation, LC-MS; format: physicochemical; details: for Recovery / Concentration Found (Mean ± SD): acidic degradation, 50 μg/mL in 1 M HCl, n = 3; for Concentration Found (Mean ± SD): neutralised with 1 M NaOH
Protocol: as §1, §2, §3, §4, §6

[5] = tested on: CA1 region of the hippocampus; experiment: Excitotoxic injury in organotypic hippocampal slice cultures subjected to NMDA; format: cell-based, Rat; details: administered simultaneously with NMDA, data not published
[6] = Oxidative degradation (30% H2O2), LC-MS; format: physicochemical; details: n = 3
Protocol: as §1, §2, §3, §4
PK20 and [Ile^9]PK20 solution (50 μg/mL) was prepared in 30% (v/v) hydrogen peroxide (H2O2). Aliquots were incubated at 37 °C for 24 h and 80 °C for 12 h. After the incubation, each drug solution was diluted with an equal volume of 0.2% formic acid in acetonitrile and analyzed with LC-MS.

[7] = Thermal degradation and freeze-thaw in Mili-Q water, LC-MS; format: physicochemical; details: 50 μg/mL in Mili-Q water, n = 3
Protocol: as §1, §2, §3, §4
Solutions (50 μg/mL) of both hybrid peptides were prepared in Mili-Q water, and aliquots were kept at room temperature 22 °C, 37 °C and −80 °C for 24 h and at 80 °C for 12 h. One aliquot was also subjected to two freeze–thaw cycles with the sample first frozen at −80°C for 24 h, defrosted under running tap water at room temperature for 2 h and second frozen at −20°C for 24 h and defrosted under running tap water at room temperature for 2 h. Then, the solutions of PK20 and [Ile^9]PK20 were diluted with an equal volume of 0.2% formic acid in acetonitrile and analyzed with LC-MS.

[8] = 50 μg/mL in 30% (v/v) H2O2, 37 °C, 24 h
[9] = 50 μg/mL in 30% (v/v) H2O2, 80 °C, 12 h
[10] = thermal degradation, 37 °C, 24 h
[11] = thermal degradation, 80 °C, 12 h
[12] = thermal degradation, room temperature (22 °C), 24 h
[13] = thermal degradation, −80 °C, 24 h

Substance: HELM PEPTIDE1{[Cc1cc(O)cc(C)c1C[C@H](N)C(=O)[*:2]].[dK].F.F.K.K.P.F.I.L}$$$$V2.0 (N-terminus assumed; SMILES CC[C@H](C)[C@H](NC(=O)[C@H](Cc1ccccc1)NC(=O)[C@@H]1CCCN1C(=O)[C@H](CCCCN)NC(=O)[C@H](CCCCN)NC(=O)[C@H](Cc1ccccc1)NC(=O)[C@H](Cc1ccccc1)NC(=O)[C@@H](CCCCN)NC(=O)[C@@H](N)Cc1c(C)cc(O)cc1C)C(=O)N[C@@H](CC(C)C)C(=O)O) [[Ile^9]PK20, analogue of PK20 with Ile instead of Tle at position 9]
- Concentration Found (Mean ± SD) ([1]; mean ± SD): 9630 ± 110 ng/mL
- Recovery [1]: 19.25%
- EC50 (mu opioid receptor): 1240 nM
- induced analgesia compared to PK20 [2]: significantly lower
- Recovery ([3]; 37 °C, 24 h): 37.13%
- Concentration Found (Mean ± SD) ([3]; 37 °C, 24 h): 18560 ± 590 ng/mL
- Recovery ([3]; 80 °C, 12 h): 11.23%
- Concentration Found (Mean ± SD) ([3]; 80 °C, 12 h): 5610 ± 1830 ng/mL
- half-life (t1/2) in 1M NaOH ([3]; calculated half-life, alkaline conditions, 1 M NaOH, 50 μg/mL, temperature not given for the half-life): 4.69 h
- Recovery ([4]; 37 °C, 24 h, LC-MS): 88.79%
- Concentration Found (Mean ± SD) ([4]; 37 °C, 24 h, LC-MS (EIC m/z 1357.40)): 44390 ± 4480 ng/mL
- Recovery ([4]; 80 °C, 12 h, LC-MS): 52.25%
- Concentration Found (Mean ± SD) ([4]; 80 °C, 12 h, LC-MS): 26120 ± 1520 ng/mL
- half-life in 1M HCl ([4]; calculated half-life, acidic conditions, 1 M HCl, 50 μg/mL, temperature not given for the half-life, LC-MS): 117.7 h
- extent of damage to the CA1 region of the hippocampus ([5]; dose 25 ng/mL): 8.53% ± 2.65
- extent of damage to the CA1 region of the hippocampus ([5]; dose 50 ng/mL): 19.04% ± 8.52
- extent of damage to the CA1 region of the hippocampus ([5]; dose 100 ng/mL): 8.62% ± 0.62
- Concentration Found (Mean ± SD) [6, 8]: 31390 ± 270 ng/mL
- Recovery [6, 8]: 62.79%
- Concentration Found (Mean ± SD) [6, 9]: 8240 ± 6690 ng/mL
- Recovery [6, 9]: 16.48%
- Concentration Found (Mean ± SD) [7, 10]: 44160 ± 990 ng/mL
- Recovery [7, 10]: 88.32%
- Concentration Found (Mean ± SD) [7, 11]: 43270 ± 1180 ng/mL
- Recovery [7, 11]: 86.54%
- Concentration Found (Mean ± SD) [7, 12]: 49710 ± 2240 ng/mL
- Recovery [7, 12]: 99.41%
- Concentration Found (Mean ± SD) [7, 13]: 51870 ± 400 ng/mL
- Recovery [7, 13]: 103.74%
- Concentration Found (Mean ± SD) ([7]; two freeze–thaw cycles (24 h −80 °C, 2 h 22 °C, 24 h −20 °C)): 49040 ± 1030 ng/mL

Reference: PMC9500858 (International Journal of Molecular Sciences, 2022)
